Laboratory results: patent US8299083B2, “PDE5 inhibitor compositions and methods for treating cardiac indications” (The Johns Hopkins University, priority 2004, dated 2012)
Where “and” joins values, the source holds several entries; their conditions need not be identical. Equal entries are not always repeated.

Legend:
Akt = Akt activation in TAC hearts (Western blot, activity assay); format: in vivo, mouse; details: 1 and 9 week TAC
Experimental: (§1) Protein was prepared from snap-frozen heart tissue using extraction buffer as described previously^90. Antibodies included calcineurin (1:2000 dilution, BD Transduction Laboratories (San Diego, Calif.), GSK3β, Ser9-phospho-GSK313, Akt, Ser473-phospho-Akt, ERK, Thr202/Thr204-phospho-ERK (1:1000 dilution, Cell Signaling Technology, Beverly, Mass.). Primary antibody binding was visualized by horse radish peroxidase-conjugated secondary antibodies and enhanced chemiluminescence (Pierce, Rockford, Ill.).
(§2) PI3Kα activity was assessed by Elisa assay following immunoprecipitation of PI3K (Seize X IP Kit, Pierce) using a p85α monoclonal antibody (Cell Signaling), with activity measured by fluorescence polarization (Molecular Devices, Perkin-Elmer Victor 3 plate reader). Akt activity (IP with s473-pAkt Ab, GSK-3 fusion protein substrate) was performed using a commercial kit (Cell Signaling Technology, Beverly, Mass.). PKG-1 activity was assayed by calorimetric analysis, CycLex (Clinisciences, Montrouge, FR) from whole heart lysates.

PI3Kα = PI3Kα activity in TAC hearts; format: in vivo, mouse; details: 3 week TAC
Experimental: as §2

RhoA, ROCK1 and ROCK2 = assay: RhoA and Rho kinase expression and activity in TAC hearts; format: in vivo, mouse; details: 3 weeks TAC
Experimental: RhoA activity assay was performed by immunoprecipitation using a commercially available immobilized antibody (SEIZE X IP, Pierce Biotechnology, IL). The antibody used was a rabbit polyclonal antibody raised against RboA (Upstate, NY [1:2500]) and subsequent commercial activity assay according to manufacturer's specification (Upstate Biotechnology, NY).
Protein lysates from whole myocardium and isolated cardiac myocytes were obtained using lysis buffer (Cell Signaling Technology, Beverly, Mass.) with mini-protease inhibitor (Roche, Ind.) and 5% Triton (Sigma Chemical (St. Louis, Mo.). Following 12,000 g centrifugation for 30 minutes, protein was quantified (Pierce Rockford, Ill.), NUPage LDS sample buffer added (Biorad, Hercules, Calif.), and lysates electrophoresed on NuPAGE 4-12% Bis-Tris polyacrylamide gels (Invitrogen, San Diego, Calif.). Membranes were incubated with rabbit polyclonal antibodies raised against ROCK1 or ROCK2 (Cell Signaling Technology, Beverly, Mass.) [1:3,000].

ERK1/2 = ERK1/2 activation in TAC hearts (Western blot); format: in vivo, mouse
Experimental: as §1

[1] = system: C57bl6 mice, isoproterenol-stimulated heart; assay: Acute isoproterenol-stimulated contractility in intact mice (pressure-volume relations); format: in vivo, mouse
Experimental: Isoproterenol (ISO: 20 ng/kg/minutes i.v.×5 min) with or without PDE5A inhibitor was given to anesthetized intact mice, and in vivo heart function assessed by pressure-volume relations at a fixed atrial pacing rate of 600-650 min^−1. Data were measured at baseline, with ISO, re-baseline, PDE5A-inhibition, and PDE5A inhibition+ISO. The ISO-only response was highly reproducible.

PKG-1 = PKG-1 activity in isolated adult myocytes; format: cell-based, mouse; parameters: concentration or dose not given beside the values
Experimental: After 10 min, cells were lysed and PKG-1 activity determined.

[2] = system: total cGMP-esterase activity; assay: cGMP-esterase (low Km cGMP phosphodiesterase) activity of heart and isolated myocytes; format: biochemical, mouse
STAT3 = STAT3 phosphorylation in TAC hearts; format: in vivo, mouse
Experimental: Myocardial tissue extract was electrophoresed in SDS-New Page gel, and probed for both tyrosine phosphorylated (Tyr705) and total Stat3. In additional studies, rat neonatal myocytes were cultured, then exposed to interleukin 6 (IL-6, Cell Signaling, 100 ng/ml) for one hour. […] In other studies, cells were pre-transfected (Lipofectamine™, Invitrogen) with mixed oligonucleotide silencing RNAs for STAT3 (siRNA, SmarTTpool Stat3). Protein extracts were obtained from myocyte extracts after the 1 hour incubation period, and probed for phosphorylated and total protein levels of Stat1 (Tyr701) and Stat3 (Tyr705) (Cell Signaling Inc.). siRNA was transfected into neonatal myocytes.

calcineurin = assay: Calcineurin expression in TAC hearts (Western blot); format: in vivo, mouse; details: 1 and 9 weeks of TAC
Experimental: as §1

[3] = inhibitor combined with isoproterenol

Structure (SMILES): CCCc1nn(C)c2c(=O)[nH]c(-c3cc(S(=O)(=O)N4CCN(C)CC4)ccc3OCC)nc12 [sildenafil]
- TAC-increased Akt activity (Akt): suppressed this response at both time points to near baseline
- TAC-increased PI3Kα activity (PI3Kα): suppressed
- RhoA and Rho-kinase expression and activity (RhoA, ROCK1 and ROCK2): inhibits RhoA, Rho-Kinase1 (ROCK1) and Rho-Kinase2 protein expression and activity
- ERK1/2 activation (phospho/total) (ERK1/2; 1-week TAC): suppressed
- ERK1/2 activation (phospho/total) (ERK1/2; 9-weeks TAC): no demonstrable effect
- isoproterenol-stimulated contractility in intact heart ([1]; acute intravenous administration): marked suppression of this adrenergic stimulation response
- effect on the heart at rest (dP/dtmax) ([1]; given alone, no ISO): no effect on the heart at rest
- enhancement of PKG-1 activity (PKG-1; basal conditions, inhibitor alone): ~10%
- rise in PKG-1 activity (PKG-1; [3]): 50% and 70%
- rise in PKG-1 activity over ISO alone (PKG-1; [3]): 30%
- proportion of total cGMP-esterase activity attributable to PDE5 ([2]; 3 week TAC hearts): ~60%
- PDE5A-dependent cGMP-esterase activity by radio-enzyme assay ([2]; NTG, n=9): 32±17.3%
- percent of total cGMP-esterase activity blocked by co-incubation ([2]; sham control hearts (baseline)): approximately 30%
- STAT3 activation (phosphorylation) (STAT3): inhibits activation of STAT3
- calcineurin protein expression (calcineurin): significantly reduced
